Measurements: publication PMC12865225 (Clinical and Translational Science, 2026)
Read-outs that look alike come from different tables or passages of the source. Marks after values point to notes of the source that are not given here.

Tests used:
BCRP = biological target: T1, BCRP (Homo sapiens, UniProt Q9UNQ0); assay: BCRP inhibition, rosuvastatin transport in HEK293 membrane vesicles; assay type: biochemical; conditions: R = I gut/IC50, FDA cut-off ≥ 10
T1 construct: made in house; host or cells: membrane vesicles from HEK293 cells expressing the transporter
T1 sequence (Q9UNQ0 1-655): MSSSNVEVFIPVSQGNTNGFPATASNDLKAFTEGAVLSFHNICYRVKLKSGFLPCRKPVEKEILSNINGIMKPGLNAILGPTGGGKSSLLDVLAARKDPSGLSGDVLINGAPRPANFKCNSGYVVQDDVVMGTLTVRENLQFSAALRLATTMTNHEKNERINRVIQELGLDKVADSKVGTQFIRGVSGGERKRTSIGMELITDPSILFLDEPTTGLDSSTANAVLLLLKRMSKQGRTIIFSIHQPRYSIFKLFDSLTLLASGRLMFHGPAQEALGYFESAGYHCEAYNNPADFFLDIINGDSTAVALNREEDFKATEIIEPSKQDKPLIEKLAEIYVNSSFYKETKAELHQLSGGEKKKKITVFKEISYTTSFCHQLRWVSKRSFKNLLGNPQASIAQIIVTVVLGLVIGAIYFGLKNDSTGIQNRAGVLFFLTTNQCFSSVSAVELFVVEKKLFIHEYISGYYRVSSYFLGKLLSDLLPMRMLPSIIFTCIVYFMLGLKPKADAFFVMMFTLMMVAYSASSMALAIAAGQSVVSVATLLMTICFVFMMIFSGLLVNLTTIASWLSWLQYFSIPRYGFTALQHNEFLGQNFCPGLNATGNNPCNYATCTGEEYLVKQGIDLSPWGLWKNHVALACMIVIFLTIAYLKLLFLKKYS
Method: Membrane vesicles, 5 μL (7.5 μg of total protein), prepared as previously reported, were aliquoted to wells of a conical‐shaped 96‐well plate. The plate was incubated for 10 min at +37°C before the initiation of transport by adding 25 μL of TS‐buffer (10 mM Tris, 250 mM sucrose, pH adjusted to 7.4 with HEPES) containing magnesium chloride (10 mM final in the reaction), adenosine triphosphate (ATP) or adenosine monophosphate (AMP), 4 mM final in the reaction, and the transporter substrate and inhibitor. Each experiment included triplicate samples for both ATP and AMP samples. The concentrations of rosuvastatin and N‐methyl‐quinidine were 1 μM in the BCRP and P‐gp vesicle inhibition assays, respectively. The transport reaction times were 1 and 2 min for BCRP and P‐gp, respectively. […] The transport reactions were quenched by adding 200 μL of cold TS‐buffer to each well and transferring the samples to a 96‐multiwell 1.0 μm glass fiber filter plate (Merck Millipore, Darmstadt, Germany) kept under vacuum. […]
For the inhibition data analysis, the average of measured concentrations in the control cells was subtracted from the average of measured concentrations in transporter‐expressing cells for each inhibitor concentration and then normalized to the vehicle sample that represents 100% transport activity. […]

OATP1B1 = biological target: T2, OATP1B1 (Homo sapiens, UniProt Q9Y6L6); assay: Irreversible inhibition (reversibility) assay of OATP1B1; assay type: cell-based; conditions: for reversibility of OATP1B1 inhibition: wash-out after 15 min preincubation
T2 construct: expressed in transfected cells; host or cells: HEK293 (recombinant baculovirus-mediated transduction)
T2 sequence (Q9Y6L6 1-691): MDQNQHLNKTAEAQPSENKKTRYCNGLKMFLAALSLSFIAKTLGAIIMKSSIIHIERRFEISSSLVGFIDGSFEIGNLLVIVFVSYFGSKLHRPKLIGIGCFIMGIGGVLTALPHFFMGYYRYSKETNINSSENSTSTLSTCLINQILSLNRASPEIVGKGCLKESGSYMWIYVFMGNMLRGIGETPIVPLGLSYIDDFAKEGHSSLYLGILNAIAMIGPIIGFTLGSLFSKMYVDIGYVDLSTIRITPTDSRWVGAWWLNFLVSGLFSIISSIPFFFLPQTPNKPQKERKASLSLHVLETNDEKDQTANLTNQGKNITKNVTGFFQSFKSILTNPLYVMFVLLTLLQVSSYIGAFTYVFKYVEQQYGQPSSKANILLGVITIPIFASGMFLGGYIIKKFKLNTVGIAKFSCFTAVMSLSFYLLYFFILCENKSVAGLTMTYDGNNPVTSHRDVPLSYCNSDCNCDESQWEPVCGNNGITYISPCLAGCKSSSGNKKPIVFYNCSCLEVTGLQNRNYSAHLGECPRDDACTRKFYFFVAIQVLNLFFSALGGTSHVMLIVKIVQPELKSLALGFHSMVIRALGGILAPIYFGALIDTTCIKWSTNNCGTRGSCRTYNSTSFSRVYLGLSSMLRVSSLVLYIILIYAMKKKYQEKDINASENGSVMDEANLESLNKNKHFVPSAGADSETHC
Method: were removed and 300 µl of warm TP-buffer was added to each well and incubated for 5 min.
The washing was repeated twice , after which the transport assays were conducted in the presence of 1 µM 2′,7′ -dichlorofluorescein for 5 min. The wells that were pre -incubated with […]
incubated with the vehicle contained three different inhibitor concentrations. After the transport

[1] = 1 µM 2′,7′-dichlorofluorescein, 5 min, read-out: IC50 OATP1B1, inhibitor present only during the transport assay
[2] = cells washed three times before the transport assay, read-out: IC50 OATP1B1, inhibitor present only during the preincubation

Calculated R-value BCRP (BCRP) | IC50 (OATP1B1; [1]) [µM] | IC50 (OATP1B1; [2]) [µM] | reversibility of OATP1B1 inhibition (OATP1B1) | Compound
51 ^b | 4.82 | 238 | reversible | Cc1onc(-c2c(Cl)cccc2Cl)c1C(=O)N[C@@H]1C(=O)N2[C@@H]1SC(C)(C)[C@@H]2C(=O)O [Dicloxacillin]
23 ^b | 15.6 | 455 | reversible | Cc1onc(-c2c(F)cccc2Cl)c1C(=O)N[C@@H]1C(=O)N2[C@@H]1SC(C)(C)[C@@H]2C(=O)O [Flucloxacillin]
